Values after ≈ are worked out from the molar mass of the structure shown. Active and inactive are the calls of the source. The calls are words filed in the database; no cut-off is given here.
Assays:
[1] = Water solubility of the compound at pH 7.4 by HPLC analysis; format: physicochemical
[2] = Acute toxicity in ICR mouse assessed as animal death at 50 mg/kg, ip measured after upto 14 days; format: organism-based; details: in vivo, 336 h, time < 14 day
MCF7 [3] = test: Antiproliferative activity against human MCF7 cells assessed as inhibition of cell growth measured after 48 hrs by MTT assay; format: functional, cell-based; details: MCF7, 48 h
U-87 MG = test: Antiproliferative activity against human U-87 MG assessed as inhibition of cell growth measured after 48 hrs by MTT assay; format: functional, cell-based, U-87MG ATCC
HT-29 = test: Antiproliferative activity against human HT-29 cells assessed as inhibition of cell growth measured after 48 hrs by MTT assay; format: functional, cell-based; details: HT-29, 48 h
[4] = Toxicity in Balb/C nude mouse xenografted with A549/Taxol assessed as effect on kidney at 15 mg/kg, ip measured after 14 days by H and E staining based analysis; format: organism-based, A549/TR; details: in vivo, 336 h, time 14 day
MDA-MB-231 [5] = test: Antitumor activity against human MDA-MB-231 cells xenografted in BALB/c nude mouse model assessed as increase in tumor necrosis at 7.5 to 15 mg/kg, ip measured after 14 days by H and E staining based analysis; format: functional, organism-based; details: dose 7.5-15 mg/kg, time 14.0 day
[6] = Tmax in mouse at 3 mg/kg, iv measured upto 24 hrs by LC-MS/MS analysis; format: ADME, organism-based; details: in vivo
MCF7 [7] = test: Induction of apoptosis in human MCF7 cells assessed as late apoptotic cells at 40 nM measured after 48 hrs by annexin-FITC and propidium iodide staining based flow cytometry analysis (reference value: 3.93%); format: functional
HCT-116 = test: Antiproliferative activity against human HCT-116 cells assessed as inhibition of cell growth measured after 48 hrs by MTT assay; format: functional, cell-based; details: HCT-116, 48 h
[8] = Cmax in mouse at 3 mg/kg, iv measured upto 24 hrs by LC-MS/MS analysis; format: ADME, organism-based; details: in vivo
MCF7 [9] = test: Induction of apoptosis in human MCF7 cells assessed as upregulation of bad protein level by Western blot analysis; format: functional, cell-based; details: dose 10-40 nM
MCF7 [10] = test: Induction of apoptosis in human MCF7 cells assessed as early apoptotic cells at 40 nM measured after 48 hrs by annexin-FITC and propidium iodide staining based flow cytometry analysis (reference value: 1.20%); format: functional
[11] = Toxicity in Balb/C nude mouse xenografted with A549/Taxol assessed as effect on body weight at 15 mg/kg, ip measured after 14 days by H and E staining based analysis; format: organism-based, A549/TR; details: in vivo, 336 h, time 14 day
MCF7 [12] = test: Induction of apoptosis in human MCF7 cells assessed as upregulation of PARP-1 protein level by Western blot analysis; format: functional, cell-based; details: dose 10-40 nM
[13] = MRT (0 to infinity) in mouse at 3 mg/kg, iv measured upto 24 hrs by LC-MS/MS analysis; format: ADME, organism-based; details: in vivo
[14] = AUC (0 to t) in mouse at 15 mg/kg, po measured upto 24 hrs by LC-MS/MS analysis; format: ADME, organism-based; details: in vivo
MCF7 [15] = test: Inhibition of colony formation in human MCF7 cells at 5 to 10 nM incubated for 48 hrs; format: functional, cell-based; details: dose 5-10 nM
[16] = biological target: Katanin p60 ATPase-containing subunit A1 (Homo sapiens, UniProt O75449); test: Binding affinity to C-terminal human Katanin p60 (111 to 491 residues) expressed in Escherichia coli Rosetta (DE3) assessed as dissociation constant by SPR analysis
Chain of Katanin p60 ATPase-containing subunit A1 (O75449 whole entry, the tested form may be a part): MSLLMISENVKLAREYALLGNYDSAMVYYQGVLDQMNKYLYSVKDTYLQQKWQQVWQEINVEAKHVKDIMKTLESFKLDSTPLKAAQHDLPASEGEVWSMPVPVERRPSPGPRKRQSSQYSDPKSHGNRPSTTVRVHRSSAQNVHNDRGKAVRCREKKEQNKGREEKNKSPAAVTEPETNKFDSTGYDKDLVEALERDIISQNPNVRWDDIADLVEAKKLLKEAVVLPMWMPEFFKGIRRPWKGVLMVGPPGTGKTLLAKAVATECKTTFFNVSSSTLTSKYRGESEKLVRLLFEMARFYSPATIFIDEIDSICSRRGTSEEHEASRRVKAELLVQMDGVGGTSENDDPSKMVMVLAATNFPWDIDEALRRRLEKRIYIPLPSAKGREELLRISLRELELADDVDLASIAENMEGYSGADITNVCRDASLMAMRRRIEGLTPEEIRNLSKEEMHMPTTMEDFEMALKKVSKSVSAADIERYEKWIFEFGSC

[17] = MRT (0 to t) in mouse at 15 mg/kg, po measured upto 24 hrs by LC-MS/MS analysis; format: ADME, organism-based; details: in vivo
[18] = Toxicity in Balb/C nude mouse xenografted with A549/Taxol assessed as effect on lung at 15 mg/kg, ip measured after 14 days by H and E staining based analysis; format: organism-based, A549/TR; details: in vivo, 336 h, time 14 day
[19] = Tmax in mouse at 15 mg/kg, po measured upto 24 hrs by LC-MS/MS analysis; format: ADME, organism-based; details: in vivo
[20] = Toxicity in Balb/C nude mouse xenografted with A549/Taxol assessed as effect on liver at 15 mg/kg, ip measured after 14 days by H and E staining based analysis; format: organism-based, A549/TR; details: in vivo, 336 h, time 14 day
[21] = Acute toxicity in ICR mouse assessed as survival rate at 300 mg/kg, ip measured after 14 days relative to control; format: organism-based; details: in vivo, time 14 day
[22] = Resistance index, ratio of IC50 for antiproliferative activity against human A549/Taxol cells to IC50 for antiproliferative activity against human A549 cells; format: functional
MCF7 [23] = test: Induction of apoptosis in human MCF7 cells assessed as upregulation of p53 protein level by Western blot analysis; format: functional, cell-based; details: dose 10-40 nM
MDA-MB-231 [24] = test: Inhibition of cell migration in human MDA-MB-231 cells assessed as reduction in number of cell migrated at 10 to 40 nM incubated for 24 hrs by crystal violet staining based analysis; format: functional; details: dose 10-40 nM
[25] = Acute toxicity in ICR mouse assessed as animal death at 300 mg/kg, ip measured after 2 days; format: organism-based; details: in vivo, 48 h, time 2 day
MCF7 [26] = test: Antiproliferative activity against katanin knockdown human MCF7 cells assessed as inhibition of cell growth at 0.2 to 25 nM measured after 48 hrs by MTT assay; format: functional, cell-based; details: dose 0.2-25 nM
[27] = Stability in mouse plasma assessed as half life at 1 uM measured upto 120 mins by LC-MS/MS analysis; format: ADME, cell-free
MCF7 [28] = test: Induction of apoptosis in human MCF7 cells assessed as necrotic cells at 40 nM measured after 48 hrs by annexin-FITC and propidium iodide staining based flow cytometry analysis (reference value: 0.18%); format: functional

SMILES: COc1cc(-n2cnc3ccc(-c4ccc(C)c(N)c4)nc32)cc(OC)c1OC
- solubility [1]: 30 µg/mL (≈ 76.8 µM)
- Activity [2]: Non-Toxic
- IC50 (MCF7 [3]): 1 nM
- IC50 (U-87 MG): 15 nM
- IC50 (HT-29): 11 nM
- Activity [4]: Non-Toxic
- Activity (MDA-MB-231 [5]): Active
- Tmax [6]: 4.8 min
- Activity (MCF7 [7]): 27.01%
- IC50 (HCT-116): 3 nM
- Cmax [8]: 1650 ng/mL
- Activity (MCF7 [9]): Dose-Dependent Effect
- Activity (MCF7 [10]): 32.55%
- Activity [11]: Non-Toxic
- Activity (MCF7 [12]): Dose-Dependent Effect
- MRT inf [13]: 31.2 min
- AUC(0-t) at 24 h [14]: 1240 ng·h/mL
- inhibition (MCF7 [15]): Active
- Kd [16]: > 50000 nM
- MRT last at 24 h [17]: 110 min
- Activity [18]: Non-Toxic
- Tmax [19]: 8.4 min
- Activity [20]: Non-Toxic
- survival at 336 h [21]: 0%
- Ratio IC50 [22]: 1.45
- Activity (MCF7 [23]): Dose-Dependent Effect
- inhibition (MDA-MB-231 [24]): Active
- Activity [25]: Non-Toxic
- Activity (MCF7 [26]): inactive
- half-life at 1 µM [27]: 39 h
- Activity (MCF7 [28]): 0.36%

Reference: ChEMBL document CHEMBL5523751, “Discovery of Novel Diaryl-Substituted Fused Heterocycles Targeting Katanin and Tubulin with Potent Antitumor and Antimultidrug Resistance Efficacy” (J Med Chem, 2024)
